Results taken from PubChem BioAssay AID248 (DTP/NCI, 2004).
Several values for one entry are separate records, joined by “and”; a condition that tells them apart may be missing. Equal entries are not always repeated. Inconclusive results and toxic doses are left out. Rule as the data show it: active = T/C of 150% or more; inactive = T/C below 125%.

Tested on: L1210 leukemia ip in BDF1 mice, survival T/C
Experiment: NCI In Vivo Anticancer Drug Screen. Data for tumor model L1210 Leukemia (intraperitoneal) in B6D2F1 (BDF1) mice
Settings: endpoint: mean survival time, higher = longer survival
Summary of the method: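 In this screen, tumor-bearing mice given compound are compared to those given vehicle, and their survival values are reported as a treated-to-control quotient.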

[1] = dose: 12.5 mg/kg/injection, schedule: Q01DX001 (ip), vehicle: Klucel (hydroxypropylcellulose) (HPC)
[2] = dose: 25.0 mg/kg/injection, schedule: Q01DX001 (ip), vehicle: Klucel (hydroxypropylcellulose) (HPC)
[3] = dose: 25.0 mg/kg/injection, schedule: Q01DX009 (ip), vehicle: Klucel (hydroxypropylcellulose) (HPC)
[4] = dose: 50.0 mg/kg/injection, schedule: Q01DX001 (ip), vehicle: Klucel (hydroxypropylcellulose) (HPC)
[5] = dose: 50.0 mg/kg/injection, schedule: Q01DX009 (ip), vehicle: Klucel (hydroxypropylcellulose) (HPC)
[6] = dose: 50.0 mg/kg/injection, schedule: Q01DX009 (ip), vehicle: saline
[7] = dose: 100.0 mg/kg/injection, schedule: Q01DX001 (ip), vehicle: Klucel (hydroxypropylcellulose) (HPC)
[8] = dose: 100.0 mg/kg/injection, schedule: Q04DX003 (ip), vehicle: Klucel (hydroxypropylcellulose) (HPC)
[9] = dose: 100.0 mg/kg/injection, schedule: Q04DX003 (ip), vehicle: saline with Tween-80
[10] = dose: 200.0 mg/kg/injection, schedule: Q04DX003 (ip), vehicle: Klucel (hydroxypropylcellulose) (HPC)
[11] = dose: 50.0 mg/kg/injection, schedule: Q04DX002 (ip), vehicle: saline with Tween-80
[12] = dose: 100.0 mg/kg/injection, schedule: Q04DX002 (ip), vehicle: saline with Tween-80
[13] = dose: 200.0 mg/kg/injection, schedule: Q04DX002 (ip), vehicle: saline with Tween-80
[14] = dose: 400.0 mg/kg/injection, schedule: Q04DX002 (ip), vehicle: saline with Tween-80
[15] = dose: 100.0 mg/kg/injection, schedule: Q04DX003 (ip), vehicle: saline
[16] = dose: 200.0 mg/kg/injection, schedule: Q04DX003 (ip), vehicle: saline
[17] = dose: 100.0 mg/kg/injection, schedule: Q01DX001 (ip), vehicle: carboxymethylcellulose (CMC)
[18] = dose: 200.0 mg/kg/injection, schedule: Q01DX001 (ip), vehicle: carboxymethylcellulose (CMC)
[19] = dose: 400.0 mg/kg/injection, schedule: Q01DX001 (ip), vehicle: carboxymethylcellulose (CMC)

Measured: T/C

COc1cc2c(cc1OC)C13CCN4CC5=CCOC6CC(=O)N2C1C6C5CC43 (stereo unspecified) (tested in a mixture with another compound)
inactive: dose: 12.0 mg/kg/injection, schedule: Q01DX001 (ip), vehicle: Klucel (hydroxypropylcellulose) (HPC) 89 % of control | dose: 12.0 mg/kg/injection, schedule: Q01DX009 (ip), vehicle: Klucel (hydroxypropylcellulose) (HPC) 97 % of control | [1] 101 % of control | dose: 12.5 mg/kg/injection, schedule: Q01DX009 (ip), vehicle: saline 97 % of control | [2] 95 % of control and 93 % of control | dose: 25.0 mg/kg/injection, schedule: Q01DX001 (ip), vehicle: saline with Tween-80 89 % of control | [3] 96 % of control | dose: 25.0 mg/kg/injection, schedule: Q01DX009 (ip), vehicle: saline 97 % of control | dose: 25.0 mg/kg/injection, schedule: Q04DX003 (ip), vehicle: Klucel (hydroxypropylcellulose) (HPC) 104 % of control | dose: 25.0 mg/kg/injection, schedule: Q04DX003 (ip), vehicle: saline with Tween-80 94 % of control | dose: 25.0 mg/kg/injection, schedule: Q04DX003 (ip), vehicle: saline 111 % of control | [4] 100 % of control and 102 % of control | dose: 50.0 mg/kg/injection, schedule: Q01DX001 (ip), vehicle: saline with Tween-80 96 % of control | [5] 91 % of control | [6] 106 % of control | dose: 50.0 mg/kg/injection, schedule: Q04DX003 (ip), vehicle: Klucel (hydroxypropylcellulose) (HPC) 107 % of control | dose: 50.0 mg/kg/injection, schedule: Q04DX003 (ip), vehicle: saline with Tween-80 100 % of control | dose: 50.0 mg/kg/injection, schedule: Q04DX003 (ip), vehicle: saline 107 % of control | dose: 75.0 mg/kg/injection, schedule: Q01DX001 (ip), vehicle: other 95 % of control | dose: 75.0 mg/kg/injection, schedule: Q01DX001 (ip), vehicle: saline 98 % of control and 94 % of control and 107 % of control | dose: 75.0 mg/kg/injection, schedule: Q01DX009 (ip), vehicle: saline 107 % of control | [7] 103 % of control | [8] 95 % of control | [9] 89 % of control | dose: 150.0 mg/kg/injection, schedule: Q01DX001 (ip), vehicle: other 86 % of control | dose: 150.0 mg/kg/injection, schedule: Q01DX001 (ip), vehicle: saline 98 % of control | [10] 90 % of control | dose: 300.0 mg/kg/injection, schedule: Q01DX001 (ip), vehicle: other 89 % of control

OC1(C2CCC(C(F)(F)F)CC2)C2C=CC1CC2 (stereo unspecified)
inactive: dose: 75.0 mg/kg/injection, schedule: Q04DX002 (ip), vehicle: Klucel (hydroxypropylcellulose) (HPC) 93 % of control | dose: 150.0 mg/kg/injection, schedule: Q04DX002 (ip), vehicle: Klucel (hydroxypropylcellulose) (HPC) 93 % of control | dose: 300.0 mg/kg/injection, schedule: Q04DX002 (ip), vehicle: Klucel (hydroxypropylcellulose) (HPC) 100 % of control

CCOC(=O)/C=C1\CCCc2ccc(Cl)cc21
inactive: [11] 111 % of control | [12] 101 % of control and 104 % of control | [13] 101 % of control | [14] 101 % of control

CN(C)c1ccc(C(=O)CCCN2CCC3(CC2)C(=O)NCN3c2ccccc2)cc1
inactive: [7] 100 % of control | dose: 200.0 mg/kg/injection, schedule: Q01DX001 (ip), vehicle: Klucel (hydroxypropylcellulose) (HPC) 94 % of control | dose: 400.0 mg/kg/injection, schedule: Q01DX001 (ip), vehicle: Klucel (hydroxypropylcellulose) (HPC) 100 % of control

CC(C)CCCCCc1ccc(OCCOc2ccc(C(=O)Nc3ccc(S(=O)(=O)F)cc3N)cc2)cc1
inactive: dose: 100.0 mg/kg/injection, schedule: Q01DX009 (ip), vehicle: saline sonified 107 % of control | [8] 98 % of control | dose: 200.0 mg/kg/injection, schedule: Q01DX009 (ip), vehicle: saline sonified 100 % of control | [10] 96 % of control | dose: 400.0 mg/kg/injection, schedule: Q01DX009 (ip), vehicle: saline sonified 98 % of control | dose: 400.0 mg/kg/injection, schedule: Q04DX003 (ip), vehicle: Klucel (hydroxypropylcellulose) (HPC) 94 % of control

CCc1ccc(NC(=O)c2ccco2)cc1
inactive: [3] 98 % of control | [5] 96 % of control | dose: 100.0 mg/kg/injection, schedule: Q01DX009 (ip), vehicle: Klucel (hydroxypropylcellulose) (HPC) 98 % of control

CCSCN1CCN(CSCC)C(C)C1 (stereo unspecified)
inactive: dose: 100.0 mg/kg/injection, schedule: Q01DX001 (ip), vehicle: saline 104 % of control | dose: 200.0 mg/kg/injection, schedule: Q01DX001 (ip), vehicle: saline 106 % of control | dose: 400.0 mg/kg/injection, schedule: Q01DX001 (ip), vehicle: saline 112 % of control

CC1(C)OCC(=NNC(N)=O)CO1
inactive: [6] 96 % of control | dose: 100.0 mg/kg/injection, schedule: Q01DX009 (ip), vehicle: saline 93 % of control | [15] 90 % of control | [16] 90 % of control

ClC(CCC(Cl)c1ccccc1)c1ccccc1 (stereo unspecified)
inactive: dose: 100.0 mg/kg/injection, schedule: Q04DX002 (ip), vehicle: Klucel (hydroxypropylcellulose) (HPC) 101 % of control | dose: 200.0 mg/kg/injection, schedule: Q04DX002 (ip), vehicle: Klucel (hydroxypropylcellulose) (HPC) 104 % of control | dose: 400.0 mg/kg/injection, schedule: Q04DX002 (ip), vehicle: Klucel (hydroxypropylcellulose) (HPC) 101 % of control

NC(=NCCCC(NCc1ccccc1)C(=O)O)N[N+](=O)[O-] (stereo unspecified)
inactive: dose: 75.0 mg/kg/injection, schedule: Q01DX009 (ip), vehicle: other 107 % of control | [15] 100 % of control | dose: 150.0 mg/kg/injection, schedule: Q01DX009 (ip), vehicle: other 111 % of control | [16] 102 % of control | dose: 300.0 mg/kg/injection, schedule: Q01DX009 (ip), vehicle: other 107 % of control | dose: 400.0 mg/kg/injection, schedule: Q04DX003 (ip), vehicle: saline 104 % of control | dose: 600.0 mg/kg/injection, schedule: Q01DX009 (ip), vehicle: other 105 % of control

CCOC(=O)C1(Br)CCN(S(=O)(=O)c2ccc(C)cc2)c2ccccc2C1=O (stereo unspecified)
inactive: [17] 108 % of control | [18] 103 % of control | [19] 100 % of control

CCCCCC(=O)OC1CCCCC1C1CCCCC1 (stereo unspecified)
inactive: dose: 50.0 mg/kg/injection, schedule: Q01DX001 (ip), vehicle: carboxymethylcellulose (CMC) 96 % of control | [17] 94 % of control | [18] 100 % of control | [19] 96 % of control

COc1cc2c(cc1OC)C(CC(C)C)=[N+](C)CC2
inactive: dose: 25.0 mg/kg/injection, schedule: Q04DX002 (ip), vehicle: saline with Tween-80 93 % of control | [11] 93 % of control | [12] 93 % of control

O=C(CCc1ccccc1)NC(=S)Nc1ccc(I)cc1
inactive: dose: 12.5 mg/kg/injection, schedule: Q01DX009 (ip), vehicle: saline with Tween-80 94 % of control and 90 % of control | dose: 100.0 mg/kg/injection, schedule: Q01DX001 (ip), vehicle: saline with Tween-80 106 % of control | [12] 104 % of control | [9] 100 % of control | dose: 200.0 mg/kg/injection, schedule: Q01DX001 (ip), vehicle: saline with Tween-80 103 % of control | [13] 93 % of control and 101 % of control | dose: 200.0 mg/kg/injection, schedule: Q04DX003 (ip), vehicle: saline with Tween-80 97 % of control | dose: 400.0 mg/kg/injection, schedule: Q01DX001 (ip), vehicle: saline with Tween-80 91 % of control | dose: 400.0 mg/kg/injection, schedule: Q01DX009 (ip), vehicle: saline with Tween-80 95 % of control and 99 % of control | [14] 101 % of control and 90 % of control | dose: 400.0 mg/kg/injection, schedule: Q04DX003 (ip), vehicle: saline with Tween-80 96 % of control

OCc1cccc2c1CCC2
inactive: [1] 100 % of control | dose: 12.5 mg/kg/injection, schedule: Q01DX009 (ip), vehicle: Klucel (hydroxypropylcellulose) (HPC) 104 % of control | [2] 100 % of control | [3] 96 % of control | [4] 102 % of control | [5] 94 % of control
